Results: US10647713B2 (Nimbus Lakshmi, Inc., priority 2016, dated 2020)

Target: human TYK2 (JH2domain-pseudokinase) (Homo sapiens (Human), UniProt P29597)
Assay: TYK2 JH2 Domain Binding Assay (KINOMEscan, DiscoveRx)
Conditions: 11-point dilution, duplicate
Procedure, shortened: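 Kd from duplicate 11-point 3-fold dilutions starting at 30,000 nM, fitted by Hill equation with slope fixed at −1. Compounds (final 0.9% DMSO) displace DNA-tagged HEK293-expressed TYK2 JH2 fusion (<0.1 nM) from ligand-coated beads over 1 h at room temperature; eluted kinase read by qPCR.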

Sequence of human TYK2 (JH2domain-pseudokinase) (P29597 556-888): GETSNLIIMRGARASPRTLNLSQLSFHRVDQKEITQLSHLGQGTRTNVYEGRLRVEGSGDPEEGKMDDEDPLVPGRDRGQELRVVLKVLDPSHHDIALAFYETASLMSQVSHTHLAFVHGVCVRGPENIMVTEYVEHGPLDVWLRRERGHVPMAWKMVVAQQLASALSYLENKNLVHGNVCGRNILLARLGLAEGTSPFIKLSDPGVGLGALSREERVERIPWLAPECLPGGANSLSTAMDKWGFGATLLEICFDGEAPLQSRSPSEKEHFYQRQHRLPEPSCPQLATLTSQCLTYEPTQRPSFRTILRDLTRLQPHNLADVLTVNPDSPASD

Kd [nM]	SMILES
1 to 10	COc1c(Nc2cc(Nc3cnc(N4CC[C@@H](OC)C4)c(C#N)n3)nc3[nH]c(C)nc23)cccc1-c1nnn(C)n1 [I-117, (R)-6-((7-((2-methoxy-3-(2-methyl-2H-tetrazol-5-yl)phenyl)amino)-2-methyl-3H-imidazo[4,5-b]pyridin-5-yl)amino)-3-(3-methoxypyrrolidin-1-yl)pyrazine-2-carbonitrile]
< 0.1	Cc1nc2c(Nc3ccccc3N(C)S(C)(=O)=O)cc(Nc3cccc(C#N)n3)nc2[nH]1 [I-120, N-(2-((5-((6-cyanopyridin-2-yl)amino)-2-methyl-3H-imidazo[4,5-b]pyridin-7-yl)amino)phenyl)-N-methylmethanesulfonamide]
0.1 to 0.5	Cc1nc2c(Nc3ccccc3N(C)S(C)(=O)=O)cc(Nc3cnc(C)c(C)n3)nc2[nH]1 [I-123, N-(2-((5-((5,6-dimethylpyrazin-2-yl)amino)-2-methyl-3H-imidazo[4,5-b]pyridin-7-yl)amino)phenyl)-N-methylmethanesulfonamide]
0.1 to 0.5	Cc1nc2c(Nc3ccccc3N(C)S(C)(=O)=O)cc(Nc3ccc(C)c(C#N)n3)nc2[nH]1 [I-125, N-(2-((5-((6-cyano-5-methylpyridin-2-yl)amino)-2-methyl-3H-imidazo[4,5-b]pyridin-7-yl)amino)phenyl)-N-methylmethanesulfonamide]
0.1 to 0.5	Cc1nc2c(Nc3ccccc3N(C)S(C)(=O)=O)cc(Nc3cccc(C(F)(F)F)n3)nc2[nH]1 [I-127, N-methyl-N-(2-((2-methyl-5-((6-(trifluoromethyl)pyridin-2-yl)amino)-3H-imidazo[4,5-b]pyridin-7-yl)amino)phenyl)methanesulfonamide]
0.5 to 1	Cc1nc2c(Nc3ccc(Cl)cc3N(C)S(C)(=O)=O)cc(Nc3cnc(C)c(C)n3)nc2[nH]1 [I-130, N-(5-chloro-2-((5-((5,6-dimethylpyrazin-2-yl)amino)-2-methyl-3H-imidazo[4,5-b]pyridin-7-yl)amino)phenyl)-N-methylmethanesulfonamide]
0.1 to 0.5	Cc1nc2c(Nc3ccc(Cl)cc3N(C)S(C)(=O)=O)cc(Nc3cccc(C#N)n3)nc2[nH]1 [I-134, N-(5-chloro-2-((5-((6-cyanopyridin-2-yl)amino)-2-methyl-3H-imidazo[4,5-b]pyridin-7-yl)amino)phenyl)-N-methylmethanesulfonamide]
0.5 to 1	Cc1ccn(-c2ccc(Nc3cc(NC(=O)C4CC4)nc4[nH]c(C(F)F)nc34)c(N(C)S(C)(=O)=O)c2)n1 [I-139, N-(2-(difluoromethyl)-7-((4-(3-methyl-1H-pyrazol-1-yl)-2-(N-methylmethylsulfonamido)phenyl)amino)-3H-imidazo[4,5-b]pyridin-5-yl)cyclopropanecarboxamide]
0.5 to 1	Cc1cnn(-c2ccc(Nc3cc(NC(=O)C4CC4)nc4[nH]c(C)nc34)c(N(C)S(C)(=O)=O)c2)c1 [I-145, N-(2-methyl-7-((4-(4-methyl-1H-pyrazol-1-yl)-2-(N-methylmethylsulfonamido)phenyl)amino)-3H-imidazo[4,5-b]pyridin-5-yl)cyclopropanecarboxamide]

Second part, the molecule before the results:

SMILES	Kd [nM]
COc1c(Nc2cc(Nc3cnc(N4CCOCC4)c(C#N)n3)nc3[nH]c(C)nc23)cccc1-c1nnn(C)n1 [I-116, 6-((7-((2-methoxy-3-(2-methyl-2H-tetrazol-5-yl)phenyl)amino)-2-methyl-3H-imidazo[4,5-b]pyridin-5-yl)amino)-3-morpholinopyrazine-2-carbonitrile]	1 to 10
Cc1ccc(Nc2cc(Nc3ccccc3N(C)S(C)(=O)=O)c3nc(C)[nH]c3n2)nn1 [I-118, N-methyl-N-(2-((2-methyl-5-((6-methylpyridazin-3-yl)amino)-3H-imidazo[4,5-b]pyridin-7-yl)amino)phenyl)methanesulfonamide]	0.1 to 0.5
COC1CN(c2ccc(Nc3cc(NC(=O)C4CC4)nc4[nH]c(C)nc34)c(N(C)S(C)(=O)=O)c2)C1 [I-122, N-(7-((4-(3-methoxyazetidin-1-yl)-2-(N-methylmethylsulfonamido)phenyl)amino)-2-methyl-3H-imidazo[4,5-b]pyridin-5-yl)cyclopropanecarboxamide]	1 to 10
Cc1cc(Nc2cc(Nc3ccccc3N(C)S(C)(=O)=O)c3nc(C)[nH]c3n2)nc(C)n1 [I-124, N-(2-((5-((2,6-dimethylpyrimidin-4-yl)amino)-2-methyl-3H-imidazo[4,5-b]-pyridin-7-yl)amino)phenyl)-N-methylmethanesulfonamide]	0.1 to 0.5
Cc1nc2c(Nc3ccc(Cl)cc3S(C)(=O)=O)cc(NC(=O)C3CC3)nc2[nH]1 [I-126, N-(7-((4-chloro-2-(methylsulfonyl)phenyl)amino)-2-methyl-3H-imidazo[4,5-b]pyridin-5-yl)cyclopropanecarboxamide]	0.1 to 0.5
COc1c(Nc2cc(NC(=O)C3CC3)nc3[nH]c(C)nc23)cccc1-n1cnc(C)n1 [I-128, N-(7-((2-methoxy-3-(3-methyl-1H-1,2,4-triazol-1-yl)phenyl)amino)-2-methyl-3H-imidazo[4,5-b]pyridin-5-yl)cyclopropanecarboxamide]	1 to 10
Cc1nc2c(Nc3ccc(N4CCC4)cc3N(C)S(C)(=O)=O)cc(NC(=O)C3CC3)nc2[nH]1 [I-129, N-(7-((4-(azetidin-1-yl)-2-(N-methylmethylsulfonamido)phenyl)amino)-2-methyl-3H-imidazo[4,5-b]pyridin-5-yl)cyclopropanecarboxamide]	1 to 10
Cc1ccc(Nc2cc(NC(=O)C3CC3)nc3[nH]c(C)nc23)c(N(C)S(C)(=O)=O)c1 [I-131, N-(2-methyl-7-((4-methyl-2-(N-methylmethylsulfonamido)phenyl)amino)-3H-imidazo[4,5-b]pyridin-5-yl)cyclopropanecarboxamide]	0.5 to 1
Cc1ccc(Nc2cc(Nc3cnc(C)c(C)n3)nc3[nH]c(C)nc23)c(N(C)S(C)(=O)=O)c1 [I-132, N-(2-((5-((5,6-dimethylpyrazin-2-yl)amino)-2-methyl-3H-imidazo[4,5-b]pyridin-7-yl)amino)-5-methylphenyl)-N-methylmethanesulfonamide]	0.1 to 0.5
COc1c(Nc2cc(NC(=O)C3CC3)nc3[nH]c(C)nc23)cccc1-c1nn(C)nc1C [I-133, N-(7-((3-(2,5-dimethyl-2H-1,2,3-triazol-4-yl)-2-methoxyphenyl)amino)-2-methyl-3H-imidazo[4,5-b]pyridin-5-yl)cyclopropanecarboxamide]	1 to 10
Cc1cnn(-c2ccc(Nc3cc(NC(=O)C4CC4)nc4[nH]c(C(F)F)nc34)c(N(C)S(C)(=O)=O)c2)c1 [I-135, N-(2-(difluoromethyl)-7-((4-(4-methyl-1H-pyrazol-1-yl)-2-(N-methylmethylsulfonamido)phenyl)amino)-3-imidazo[4,5-b]pyridin-5-yl)cyclopropanecarboxamide]	0.1 to 0.5
COc1ccccc1Nc1cc(Nc2ccc(N3CCC4(CCOCC4)CC3)cn2)nc2[nH]c(C(F)F)nc12 [I-136, N5-(5-(3-oxa-9-azaspiro[5.5]undecan-9-yl)pyridin-2-yl)-2-(difluoromethyl)-N7-(2-methoxyphenyl)-3H-imidazo[4,5-b]pyridine-5,7-diamine]	> 10
COc1c(Nc2cc(Nc3cnc(C(C)(C)OC)c(C)n3)nc3[nH]c(C)nc23)cccc1-c1nnn(C)n1 [I-138, N7-(2-methoxy-3-(2-methyl-2H-tetrazol-5-yl)phenyl)-N5-(5-(2-methoxypropan-2-yl)-6-methylpyrazin-2-yl)-2-methyl-3H-imidazo[4,5-b]pyridine-5,7-diamines]	1 to 10
COc1c(Nc2cc(NC(=O)C3CC3)nc3[nH]c(C(F)F)nc23)cccc1C(=O)O [I-140, 3-((5-(cyclopropanecarboxamido)-2-(difluoromethyl)-3H-imidazo[4,5-b]pyridin-7-yl)amino)-2-methoxybenzoic acid]	1 to 10
COc1c(Nc2cc(NC(=O)C3CC3)nc3[nH]c(C)nc23)cccc1C(=O)O [I-141, 3-((5-(cyclopropanecarboxamido)-2-methyl-3H-imidazo[4,5-b]pyridin-7-yl)amino)-2-methoxybenzoic acid]	> 10
COc1cc(-c2cncn2C)ccc1Nc1cc(NC(=O)C2CC2)nc2[nH]c(C(F)F)nc12 [I-142, N-(2-(difluoromethyl)-7-((2-methoxy-4-(1-methyl-1H-imidazol-5-yl)phenyl)amino)-3H-imidazo[4,5-b]pyridin-5-yl)cyclopropanecarboxamide]	1 to 10
COc1cc(-c2cncn2C)ccc1Nc1cc(Nc2cccc(C#N)n2)nc2[nH]c(C(F)F)nc12 [I-143, 6-((2-(difluoromethyl)-7-((2-methoxy-4-(1-methyl-1H-imidazol-5-yl)phenyl)amino)-3H-imidazo[4,5-b]pyridin-5-yl)amino)picolinonitril]	1 to 10
COc1cc(-c2cncn2C)ccc1Nc1cc(Nc2cnc(C)c(C)n2)nc2[nH]c(C(F)F)nc12 [I-144, 2-(difluoromethyl)-N5-(5,6-dimethylpyrazin-2-yl)-N7-(2-methoxy-4-(1-methyl-1H-imidazol-5-yl)phenyl)-3H-imidazo[4,5-b]pyridine-5,7-diamine]	> 10
COc1c(Nc2cc(NC(=O)C3CC3)nc3[nH]c(C(F)F)nc23)cccc1-c1c(C)nnn1C [I-146, N-(2-(difluoromethyl)-7-((3-(1,4-dimethyl-1H-1,2,3-triazol-5-yl)-2-methoxyphenyl)amino)-3H-imidazo[4,5-b]pyridin-5-yl)cyclopropanecarboxamide]	1 to 10
CN(c1cc(-c2cncn2C)ccc1Nc1cc(NC(=O)C2CC2)nc2[nH]c(C(F)F)nc12)S(C)(=O)=O [I-147, N-(2-(difluoromethyl)-7-((4-(1-methyl-1H-imidazol-5-yl)-2-(N-methylmethylsulfonamido)phenyl)amino)-3H-imidazo[4,5-b]pyridin-5-yl)cyclopropanecarboxamide]	< 0.1
Cn1ccc(-c2ccc(Nc3cc(NC(=O)C4CC4)nc4[nH]c(C(F)F)nc34)c(S(C)(=O)=O)c2)n1 [I-148, N-(2-(difluoromethyl)-7-((4-(1-methyl-1H-pyrazol-3-yl)-2-(methylsulfonyl)phenyl)amino)-3H-imidazo[4,5-b]pyridin-5-yl)cyclopropanecarboxamide]	0.1 to 0.5
